Assays:
BRD4 BD2 = molecular target: T1, BRD4 BD2 (Homo sapiens, UniProt O60885); test: AlphaScreen binding assay, BRD4 Bromodomain 2
T1 construct: made in house
Outline: (§1)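 Compound dilution series were mixed with His-tagged BRD4 bromodomain and biotinylated tetra-acetylated H4 (1-21) peptide at pH 7.3 (BD1 and peptide at 50 nM, BD2 and peptide at 100 nM). Donor and acceptor beads were then added, and plates were equilibrated at least 1 h before reading. IC50 values were fitted with a four-parameter logistic model.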

BRD4 BD1 = molecular target: T2, BRD4 BD1 (Homo sapiens, UniProt O60885); test: AlphaScreen binding assay, BRD4 Bromodomain 1
T2 construct: made in house
Outline: as §1

Row | Compound | IC50 (BRD4 BD2) | IC50 (BRD4 BD1)
1 | CC(=O)N1c2ccc(-c3ccc(S(C)(=O)=O)cc3)cc2N(C(=O)Nc2ccccc2)C[C@@H]1C [Example I-964] | 0.05 to 0.5 µM | 1 to 10 µM
2 | CCNC(=O)N1C[C@H](C)N(C(C)=O)c2ccc(-c3ccc(S(C)(=O)=O)cc3)cc21 [Example I-965] | > 0.5 µM | > 10 µM
3 | CC(=O)N1c2ccc(-c3ccc(S(C)(=O)=O)cc3)cc2N(C(=O)Nc2ccccc2C)C[C@@H]1C [Example I-966] | > 0.5 µM | > 10 µM
4 | COc1cccc(NC(=O)N2C[C@H](C)N(C(C)=O)c3ccc(-c4ccc(S(C)(=O)=O)cc4)cc32)c1 [Example I-967] | 0.05 to 0.5 µM | > 10 µM
5 | CC(=O)N1c2ccc(-c3ccc(S(C)(=O)=O)cc3)cc2N(C(=O)NC2CCCC2)C[C@@H]1C [Example I-968] | 0.05 to 0.5 µM | 1 to 10 µM
6 | CC(=O)N1c2ccc(-c3ccc(S(C)(=O)=O)cc3)cc2N(C(=O)Nc2cccc(Cl)c2)C[C@@H]1C [Example I-969] | > 0.5 µM | > 10 µM
7 | COc1ccccc1NC(=O)N1C[C@H](C)N(C(C)=O)c2ccc(-c3ccc(S(C)(=O)=O)cc3)cc21 [Example I-970] | 0.05 to 0.5 µM | 1 to 10 µM
8 | CC(=O)N1c2ccc(-c3ccc(S(C)(=O)=O)cc3)cc2N(C(=O)Nc2cccc(C)c2)C[C@@H]1C [Example I-971] | 0.05 to 0.5 µM | > 10 µM
9 | COc1ccccc1CNC(=O)N1C[C@H](C)N(C(C)=O)c2ccc(-c3ccc(S(C)(=O)=O)cc3)cc21 [Example I-972] | > 0.5 µM | > 10 µM
10 | CC(=O)N1c2ccc(-c3ccc(S(C)(=O)=O)cc3)cc2N(C(=O)Nc2ccccc2Cl)C[C@@H]1C [Example I-973] | 0.05 to 0.5 µM | 1 to 10 µM
11 | CC(=O)N1c2ccc(-c3ccc(S(C)(=O)=O)cc3)cc2N(C(=O)Nc2ccc(C)cc2)C[C@@H]1C [Example I-974] | 0.05 to 0.5 µM | 1 to 10 µM
12 | CC(=O)N1c2ccc(-c3ccc(S(C)(=O)=O)cc3)cc2N(C(=O)Nc2ccc(Cl)cc2)C[C@@H]1C [Example I-975] | > 0.5 µM | > 10 µM
13 | CC(=O)N1c2ccc(-c3ccc(S(C)(=O)=O)cc3)cc2N(C(=O)NCc2ccc(C)cc2)C[C@@H]1C [Example I-976] | > 0.5 µM | > 10 µM
14 | CC(=O)N1c2ccc(-c3ccc(S(C)(=O)=O)cc3)cc2N(C(=O)NCc2ccccc2Cl)C[C@@H]1C [Example I-977] | > 0.5 µM | > 10 µM
15 | CC(=O)N1c2ccc(-c3ccc(S(C)(=O)=O)cc3)cc2N(C(=O)NCC(C)C)C[C@@H]1C [Example I-978] | > 0.5 µM | > 10 µM
16 | CC(=O)N1c2ccc(-c3ccc(S(C)(=O)=O)cc3)cc2N(C(=O)Nc2ccsc2)C[C@@H]1C [Example I-979] | 0.05 to 0.5 µM | 1 to 10 µM
17 | CC(=O)N1c2ccc(-c3ccc(S(C)(=O)=O)cc3)cc2N(C(=O)NCc2ccco2)C[C@@H]1C [Example I-980] | > 0.5 µM | > 10 µM
18 | CC(=O)N1c2ccc(-c3ccc(S(C)(=O)=O)cc3)cc2N(C(=O)c2cc(C)[nH]n2)CC1C (stereo not shown) [Example I-981] | 0.05 to 0.5 µM | 1 to 10 µM
19 | CC(=O)N1c2ccc(-c3ccc(S(C)(=O)=O)cc3)cc2N(C(=O)c2ncc[nH]2)CC1C (stereo not shown) [Example I-982] | > 0.5 µM | 1 to 10 µM
20 | CC(=O)N1c2ccc(-c3ccc(S(C)(=O)=O)cc3)cc2N(C(=O)c2ccc(S(=O)(=O)N(C)C)o2)C[C@@H]1C [Example I-983] | > 0.5 µM | > 10 µM
21 | CC(=O)N1c2ccc(-c3ccc(S(C)(=O)=O)cc3)cc2N(C(=O)c2ccc(CN(C)C)o2)C[C@@H]1C [Example I-984] | 0.05 to 0.5 µM | > 10 µM
22 | CC(=O)N1c2ccc(-c3ccc(S(C)(=O)=O)cc3)cc2N(C(=O)c2cccc(N)c2)C[C@@H]1C [Example I-985] | 0.05 to 0.5 µM | > 10 µM
23 | CC(=O)N1c2ccc(-c3ccc(S(C)(=O)=O)cc3)cc2N(C(=O)c2ccc(N)cc2)C[C@@H]1C [Example I-986] | > 0.5 µM | > 10 µM
24 | C[C@H]1CN(C(=O)c2ccco2)c2cc(-c3ccc(S(C)(=O)=O)cc3)ccc2N1C(N)=O [Example I-987] | > 0.5 µM | > 10 µM
25 | CC(=O)N1c2ccc(NCc3ccccc3)cc2N(C(=O)c2ccco2)C[C@@H]1C [Example I-989] | 0.05 to 0.5 µM | 1 to 10 µM

Row | Compound | IC50 (BRD4 BD2) | IC50 (BRD4 BD1)
26 | CC(=O)N1c2ccc(N(C)Cc3ccccc3)cc2N(C(=O)c2ccco2)C[C@@H]1C [Example I-990] | 0.05 to 0.5 µM | 1 to 10 µM
27 | CC(=O)N1c2ccc(Nc3ccccc3)cc2N(C(=O)c2ccco2)C[C@@H]1C [Example I-991] | 0.05 to 0.5 µM | 1 to 10 µM
28 | CC(=O)N1c2ccc(N(C)c3ccccc3)cc2N(C(=O)c2ccco2)C[C@@H]1C [Example I-992] | > 0.5 µM | 1 to 10 µM
29 | CC(=O)N1c2ccc(N3CCCC3)cc2N(C(=O)c2ccco2)C[C@@H]1C [Example I-993] | 0.05 to 0.5 µM | 1 to 10 µM
30 | C[C@H]1CN(C(=O)OC2COC2)c2cc(-c3cnn(C4CC4)c3)ccc2N1C(=O)C1CC1 [Example I-998] | > 0.5 µM | 1 to 10 µM
31 | COC(=O)N1c2ccc(-c3cnn(C4CC4)c3)cc2N(C(=O)OC2COC2)C[C@@H]1C [Example I-999] | 0.05 to 0.5 µM | 1 to 10 µM
32 | CC(=O)N1c2ccc(-c3cnn(CCO)c3)cc2N(C(=O)Oc2ccc(F)cc2F)C[C@@H]1C [Example I-1009] | 0.05 to 0.5 µM | 1 to 10 µM
33 | CC(=O)N1c2ccc(-c3ccc(S(C)(=O)=O)cc3)cc2N(C(=O)Oc2ccc(F)cc2F)C[C@@H]1C [Example I-1010] | 0.05 to 0.5 µM | 1 to 10 µM
34 | CC(=O)N1c2ccc(-c3cnn(CCS(C)(=O)=O)c3)cc2N(C(=O)Oc2ccc(F)cc2)C[C@@H]1C [Example I-1017] | > 0.5 µM | 1 to 10 µM
35 | COC(=O)N1c2ccc(-c3cnn(CCO)c3)cc2N(C(=O)Oc2ccc(F)cc2)C[C@@H]1C [Example I-1022] | 0.05 to 0.5 µM | 1 to 10 µM
36 | CC(=O)N1c2ccc(-c3cnn(C4CC4)c3)cc2N(C(=O)Oc2ncccc2C(F)(F)F)C[C@@H]1C [Example I-1188] | > 0.5 µM | > 10 µM
37 | CC(=O)N1c2ccc(-c3cnn(C4CC4)c3)cc2N(C(=O)Oc2ccc(Cl)cc2Cl)C[C@@H]1C [Example I-1193] | 0.05 to 0.5 µM | 1 to 10 µM
38 | CC(=O)N1c2ccc(-c3cnn(C4CC4)c3)cc2N(C(=O)Oc2c(Cl)cc(Cl)c3cccnc23)C[C@@H]1C [Example I-1197] | 0.05 to 0.5 µM | 1 to 10 µM
39 | CC(=O)N1c2ccc(-c3cnn(C4CC4)c3)cc2N(C(=O)Oc2cc(F)ccc2C)C[C@@H]1C [Example I-1200] | 0.05 to 0.5 µM | 1 to 10 µM
40 | CC(=O)N1c2ccc(-c3cnn(C4CC4)c3)cc2N(C(=O)Oc2cnc3ccccc3c2)C[C@@H]1C [Example I-1203] | 0.05 to 0.5 µM | 1 to 10 µM
41 | COc1ncc(F)cc1OC(=O)N1C[C@H](C)N(C(C)=O)c2ccc(-c3cnn(C4CC4)c3)cc21 [Example I-1208] | 0.05 to 0.5 µM | 1 to 10 µM
42 | COc1cc(OC(=O)N2C[C@H](C)N(C(C)=O)c3ccc(-c4cnn(C5CC5)c4)cc32)c(Cl)cn1 [Example I-1209] | 0.05 to 0.5 µM | 1 to 10 µM
43 | COc1ncc(C)cc1OC(=O)N1C[C@H](C)N(C(C)=O)c2ccc(-c3cnn(C4CC4)c3)cc21 [Example I-1210] | 0.05 to 0.5 µM | 1 to 10 µM
44 | COC(=O)N1c2ccc(-c3ccc(S(C)(=O)=O)cc3)cc2N(C(=O)Oc2cccnc2)C[C@@H]1C [Example I-1276] | 0.05 to 0.5 µM | 1 to 10 µM
45 | CC(=O)N1c2ccc(-c3ccc(NS(C)(=O)=O)cc3)cc2N(C(=O)Oc2cccnc2)C[C@@H]1C [Example I-1277] | 0.05 to 0.5 µM | 1 to 10 µM
46 | COC(=O)N1c2ccc(-c3ccc(NS(C)(=O)=O)cc3)cc2N(C(=O)Oc2cccnc2)C[C@@H]1C [Example I-1278] | > 0.5 µM | 1 to 10 µM
47 | COC(=O)N1c2ccc(-c3cnn(CCS(C)(=O)=O)c3)cc2N(C(=O)Oc2cccnc2)C[C@@H]1C [Example I-1280] | 0.05 to 0.5 µM | 1 to 10 µM
48 | COC(=O)N1c2ccc(-c3cnn(CCO)c3)cc2N(C(=O)Oc2cccnc2)C[C@@H]1C [Example I-1282] | > 0.5 µM | 1 to 10 µM
49 | COC(=O)N1c2ccc(-c3cnn(C4CC4)c3)cc2N(C(=O)Oc2cccnc2)C[C@@H]1C [Example I-1283] | 0.05 to 0.5 µM | 1 to 10 µM
50 | COC(=O)N1c2ccc(-c3cnn(C(C)(C)CO)c3)cc2N(C(=O)Oc2cccnc2)C[C@@H]1C [Example I-1285] | 0.05 to 0.5 µM | 1 to 10 µM

Reference: patent US10703764B2, “Benzopiperazine compositions as BET bromodomain inhibitors” (FORMA Therapeutics, Inc., priority 2013, dated 2020)
